Source: patent publication US7071195B2, “Amine and amide derivatives as ligands for the neuropeptide Y Y5 receptor useful in the treatment of obesity and other disorders” (Ortho-McNeil Pharmaceutical, Inc., priority 1999, dated 2006)
Structures can show the parent of a compound that is named as a salt.

Target: T1, human neuropeptide Y5 receptor (Homo sapiens, UniProt Q15761)
T1 construct: expressed in transfected cells; host or cells: HEK-293 (stably transfected, G-418 selected); membranes
T1 sequence (Q15761 1-445): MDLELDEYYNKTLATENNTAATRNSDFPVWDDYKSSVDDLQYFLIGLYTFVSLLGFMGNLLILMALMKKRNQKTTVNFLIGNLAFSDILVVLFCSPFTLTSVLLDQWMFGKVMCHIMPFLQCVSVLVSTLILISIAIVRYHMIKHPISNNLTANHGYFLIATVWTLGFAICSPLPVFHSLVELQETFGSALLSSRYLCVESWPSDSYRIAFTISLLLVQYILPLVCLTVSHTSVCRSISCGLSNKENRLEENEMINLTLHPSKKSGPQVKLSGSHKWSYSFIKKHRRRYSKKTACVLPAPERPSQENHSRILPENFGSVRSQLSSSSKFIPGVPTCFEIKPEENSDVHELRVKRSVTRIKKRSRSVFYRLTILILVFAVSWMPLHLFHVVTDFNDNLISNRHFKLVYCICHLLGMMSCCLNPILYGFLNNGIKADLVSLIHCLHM
Test: NPY5 HTS centrifugation assay: competition with 125I-PYY for binding to membranes of NPY5-transfected HEK293 cells
Conditions: 80 pM 125I-PYY, 1 hr room temperature; for % Inh @ 300 nM (% Inhibition of 125I-PYY Binding) / inhibition at 0.3 µM: 300 nM compound; for % Inh @ 3 uM (% Inhibition of 125I-PYY Binding) / inhibition at 3 µM: 3 uM compound; for inhibition at 0.3 µM: read-out: % Inh @ 300 nM (% Inhibition of 125I-PYY Binding); for inhibition at 3 µM: read-out: % Inh @ 3 uM (% Inhibition of 125I-PYY Binding)
Description: The compounds described in this invention were evaluated for binding to the human neuropeptide Y5 receptor.
Stably transfected cells served as the source for the membranes for the NPY5 receptor binding assay.
NPY5-transfected HEK293 cells were grown to confluence in 150 cm^2 culture dishes. […] Cells were then incubated in phosphate-buffered saline without Calcium and without Magnesium, supplemented with 2 mM EDTA. Cells were incubated for 10 minutes at room temperature and the cells were collected by repetitive pipeting. Cells were formed into pellets and then frozen at −80 until needed. Frozen pellets were homogenized with a polytron at full speed for 12 seconds in a homogenization buffer (20 mM Tris HCl, 5 mM EDTA, pH 7.4). Homogenates were centrifuged for 5 minutes at 4 C at 200 g. Supernatants were transferred to corex tubes and centrifuged for 25 minutes at 28,000 g. Pellets were re-suspended in Binding (20 mM HEPES, 10 mM NaCl, 0.22 mM KH2PO4, 1.3 mM CaCl2, 0.8 mM MgSO4, pH 7.4). Membranes were kept on ice until use.
Compounds to be tested were prepared as 10× stocks in binding buffer and added first to assay tubes (RIA vials, Sarstedt). […] To each tube is added 100 μL of membranes and the mixture is agitated by pipeting 2 times. Samples are incubated for 1 hr at room temperature. Aluminum cast plates (Sarstedt) containing the vials are then centrifuged 10 minutes at 3200 rpm in a Sorvall RT6000. Supernatant is then aspirated. To each vial 400 μL PBS is added and this is then aspirated again. Vials are then put in carrier polypropylene 12×75 tube and counted in gamma counter (Packard). Non-specific binding is determined in the presence of 300 nM NPY. […] These operations are known to those skilled in the art.

Compound	% Inh @ 300 nM (% Inhibition of 125I-PYY Binding) [%]	% Inh @ 3 uM (% Inhibition of 125I-PYY Binding) [%]	inhibition at 0.3 µM [%]	inhibition at 3 µM [%]
NC(CCCCNS(=O)(=O)c1ccccc1)C(=O)NC1CCc2ccccc2C1Cc1cccnc1 (mixture of isomers) [Compound 33]	52	96		
CC(=O)NC(CCCCNS(=O)(=O)c1ccccc1)C(=O)NC1CCc2ccccc2C1Cc1cccnc1 (mixture of isomers) [Compound 37]	89	102		
O=C(NC(CCCCNS(=O)(=O)c1ccccc1)C(=O)NC1CCc2ccccc2C1Cc1cccnc1)c1ccccc1 (mixture of isomers) [Compound 39]	70	95		
CCNC(=O)NC(CCCCNS(=O)(=O)c1ccccc1)C(=O)NC1CCc2ccccc2C1Cc1cccnc1 (mixture of isomers) [Compound 40]	21	92		
NC(=O)NC(CCCCNS(=O)(=O)c1ccccc1)C(=O)NC1CCc2ccccc2C1Cc1cccnc1 (mixture of isomers) [Compound 41]	54	94		
CC(C)(C)OC(=O)NC1CCN(CC(=O)NC2CCc3cc(F)ccc3C2Cc2cccnc2)C1 (mixture of isomers) [Compound 56]	88	94		
CC(C)(C)OC(=O)NC1CCN(CC(=O)NC2CCc3cc(F)ccc3C2Cc2cccnc2)C1 (mixture of isomers) [Compound 57]	87	93		
O=C(CN1CCC(NS(=O)(=O)c2ccccc2)C1)NC1CCc2cc(F)ccc2C1Cc1cccnc1 (mixture of isomers) [Compound 58]	93	91		
O=C(CN1CCC(NS(=O)(=O)c2ccccc2)C1)NC1CCc2cc(F)ccc2C1Cc1cccnc1 (mixture of isomers) [Compound 59]	90	93		
O=C(CN1CCC(NC(=O)c2ccccc2)C1)NC1CCc2cc(F)ccc2C1Cc1cccnc1 (mixture of isomers) [Compound 60]	86	109		
NC(CCCCNS(=O)(=O)c1ccccc1)CNC1CCc2ccccc2C1Cc1cccnc1 (mixture of isomers) [Compound 65]	79	98		
CCNC(CCCCNS(=O)(=O)c1ccccc1)CNC1CCc2ccccc2C1Cc1cccnc1 (mixture of isomers) [Compound 68]	109	108		
O=C(Nc1ccccc1)NC(CCCCNS(=O)(=O)c1ccccc1)C(=O)NC1CCc2ccccc2C1Cc1cccnc1 (mixture of isomers) [Compound 72]	41	73		
O=C(CN1CCC(NS(=O)(=O)c2ccccc2)C1)N[C@H]1CCc2cc(F)ccc2[C@H]1Cc1cccnc1 (relative stereo) [Compound 17, 3-[(Phenylsulfonyl)amino]-N-[cis-1,2,3,4-tetrahydro-6-fluoro-1-(3-pyridinylmethyl)-2-naphthalenyl]-1-pyrrolidineacetamide bis-trifluoroacetate]			98	102
COc1ccc2c(c1)CC[C@H](NC(=O)CN1CCC(n3c(=O)[nH]c4ccccc43)CC1)[C@@H]2Cc1cccnc1 (relative stereo) [Compound 19, 4-(2,3-Dihydro-2-oxo-1H-benzimidazol-1-yl)-N-[cis-1,2,3,4-tetrahydro-6-methoxy-1-(3-pyridinylmethyl)-2-naphthalenyl]-1-piperidineacetamide Bis-hydrochloride]			69	101
COc1ccc2c(c1)CC[C@@H](NC(=O)CN1CCC(n3c(=O)[nH]c4ccccc43)CC1)[C@@H]2Cc1cccnc1 (relative stereo) [Compound 20, 4-(2,3-Dihydro-2-oxo-1H-benzimidazol-1-yl)-N-[trans-1,2,3,4-tetrahydro-6-methoxy-1-(3-pyridinylmethyl)-2-naphthalenyl]-1-piperidineacetamide bis-hydrochloride]			88	96
CC(=O)C1(c2ccccc2)CCN(CC(=O)N[C@H]2CCc3ccccc3[C@H]2Cc2cccnc2)CC1 (relative stereo) [Compound 21, 4-Acetyl-4-phenyl-N-[cis-1,2,3,4-tetrahydro-1-(3-pyridinylmethyl)-2-naphthalenyl]-1-piperidineacetamide bis-hydrochloride]			83	98
O=C(CN1CCC2(CC1)C(=O)NCN2c1ccccc1)N[C@H]1CCc2ccccc2[C@H]1Cc1cccnc1 (relative stereo) [Compound 22, 4-Oxo-1-phenyl-N-[cis-1,2,3,4-tetrahydro-1-(3-pyridinylmethyl)-2-naphthalenyl]-1,3,8-triazaspiro[4.5]decane-8-acetamide bis-hydrochloride]			32	70
O=C(CN1CCC(n2c(=O)[nH]c3ccccc32)CC1)N[C@H]1CCc2cc(O)ccc2[C@H]1Cc1cccnc1 (relative stereo) [Compound 23, 4-(2,3-Dihydro-2-oxo-1H-benzimidazol-1-yl)-N-[cis-1,2,3,4-tetrahydro-6-hydroxy-1-(3-pyridinylmethyl)-2-naphthalenyl]-1-piperidineacetamide bis-hydrochloride]			96	100
O=C(NCC(Cc1cccnc1)c1ccc(F)cc1)[C@H]1CC[C@H](CNS(=O)(=O)c2ccccc2F)CC1 (relative stereo) [Compound 26, trans-N-[2-(4-fluorophenyl)-3-(3-pyridinyl)propyl]-4-[((2-fluorophenylsulfonyl)amino)methyl]-1-cyclohexanamide hydrochloride]			108	110
NC(CCCCNS(=O)(=O)c1ccccc1)C(=O)NC1CCc2ccccc2C1Cc1cccnc1 (single isomer, unassigned) [Compound 34a]	87	97		
NC(CCCCNS(=O)(=O)c1ccccc1)C(=O)NC1CCc2ccccc2C1Cc1cccnc1 (single isomer, unassigned) [Compound 34b]	61	99		
CC(=O)NC(CCCCNS(=O)(=O)c1ccccc1)C(=O)NC1CCc2ccccc2C1Cc1cccnc1 (single isomer, unassigned) [Compound 38a]	80	104		
CC(=O)NC(CCCCNS(=O)(=O)c1ccccc1)C(=O)NC1CCc2ccccc2C1Cc1cccnc1 (single isomer, unassigned) [Compound 38b]	89	101		
CN(C)C(CCCCNS(=O)(=O)c1ccccc1)C(=O)NC1CCc2ccccc2C1Cc1cccnc1 (single isomer, unassigned) [Compound 43a]	84	93		
CN(C)C(CCCCNS(=O)(=O)c1ccccc1)C(=O)NC1CCc2ccccc2C1Cc1cccnc1 (single isomer, unassigned) [Compound 43b]	62	86		
NC(CCCCNS(=O)(=O)c1ccccc1)CNC1CCc2ccccc2C1Cc1cccnc1 (single isomer, unassigned) [Compound 66]	98	102		
